Some results are limits rather than exact numbers.

In this experiment the target is HCV NS3-4A serine protease (full-length NS3-4A protein) (Hepatitis C virus genotype 1a (isolate 1) (HCV), UniProt P26664). Put plainly: HCV NS3-4A protease assay. The experiment is classed as biochemical, HCV genotype 1a. The conditions noted are these: strain HCV-1, fluorogenic peptide substrate, read-out: Protease assay Ex. 12 IC50. How it is done: The inhibitory activity of certain compounds of Table A against HCV NS3-4A serine protease is determined in a homogenous assay using the full-length NS3-4A protein (genotype 1a, strain HCV-1) and a commercially available internally-quenched fluorogenic peptide substrate as described by Taliani, M., et al. 1996 Anal. Biochem. 240:60-67, which is incorporated by reference in its entirety.
Sequence of HCV NS3-4A serine protease (full-length NS3-4A protein) (P26664 1027-1657): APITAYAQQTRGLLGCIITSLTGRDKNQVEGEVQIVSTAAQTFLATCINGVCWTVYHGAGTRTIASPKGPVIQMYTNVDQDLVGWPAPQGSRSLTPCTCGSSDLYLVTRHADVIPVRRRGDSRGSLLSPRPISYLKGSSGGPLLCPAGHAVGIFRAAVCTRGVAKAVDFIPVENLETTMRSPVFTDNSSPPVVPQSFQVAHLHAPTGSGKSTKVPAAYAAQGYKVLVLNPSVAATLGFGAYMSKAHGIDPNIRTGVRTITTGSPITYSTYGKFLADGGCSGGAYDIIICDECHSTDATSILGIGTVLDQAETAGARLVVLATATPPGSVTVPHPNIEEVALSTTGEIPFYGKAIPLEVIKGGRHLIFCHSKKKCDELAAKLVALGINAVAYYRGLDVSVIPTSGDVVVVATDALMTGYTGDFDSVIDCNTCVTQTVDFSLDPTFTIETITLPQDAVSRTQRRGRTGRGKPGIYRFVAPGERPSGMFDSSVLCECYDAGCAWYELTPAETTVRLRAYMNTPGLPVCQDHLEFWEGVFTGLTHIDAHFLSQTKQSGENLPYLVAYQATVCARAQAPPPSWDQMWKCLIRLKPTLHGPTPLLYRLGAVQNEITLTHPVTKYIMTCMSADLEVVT
Sequence of HCV NS3-4A serine protease (full-length NS3-4A protein) (P26664 1658-1711 partner): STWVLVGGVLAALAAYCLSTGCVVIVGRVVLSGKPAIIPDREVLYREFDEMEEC
For the compound `CC[C@@H]1C[C@]1(NC(=O)[C@@H]1C[C@@]2(CN1C(=O)[C@@H](NC(=O)[C@@H](NC(=O)[C@@H]1CCCN1C(C)C)C1CCCCC1)C(C)(C)C)C(C)(C)C21CCC1)C(=O)NS(=O)(=O)N1CCCC1` [Compound 116, (5R,8S)-7-[(2S)-2-{[(2S)-2-cyclohexyl-2-({[(2S)-1-isopropylpyrrolidin-2-yl]carbonyl}amino)acetyl]amino}-3,3-dimethylbutanoyl]-N-{(1R,2R)-2-ethyl-1-[(pyrrolidin-1-ylsulfonyl)carbamoyl]cyclopropyl}-10,10-dimethyl-7-azadispiro[3.0.4.1]decane-8-carboxamide], the IC50 worked out at 4.5 nM. For `C=C[C@@H]1C[C@]1(NC(=O)[C@@H]1C[C@@]2(CN1C(=O)[C@@H](NC(=O)[C@@H](NC(=O)[C@@H]1CCCN1C(C)C)C1CCCC1)C(C)(C)C)C(C)(C)C21CCC1)C(=O)NS(=O)(=O)N1CCCC1` [Compound 59, (5R,8S)-7-[(2S)-2-{[(2S)-2-cyclopentyl-2-({[(2S)-1-isopropylpyrrolidin-2-yl]carbonyl}amino)acetyl]amino}-3,3-dimethylbutanoyl]-10,10-dimethyl-N-{(1R,2S)-1-[(pyrrolidin-1-ylsulfonyl)carbamoyl]-2-vinylcyclopropyl}-7-azadispiro[3.0.4.1]decane-8-carboxamide] the value was 3.5 nM; for `C=C[C@@H]1C[C@]1(NC(=O)[C@@H]1C[C@@]2(CN1C(=O)[C@@H](NC(=O)[C@@H](NC(=O)[C@@H]1CCCN1CC)C1CCCCC1)C1(C)CCOCC1)C(C)(C)C21CCC1)C(=O)NS(=O)(=O)N1CCCC1` [Compound 125, (5R,8S)-7-[(2S)-2-{[(2S)-2-cyclohexyl-2-({[(2S)-1-ethylpyrrolidin-2-yl]carbonyl}amino)acetyl]amino}-2-(4-methyltetrahydro-2H-pyran-4-yl)acetyl]-10,10-dimethyl-N-{(1R,2S)-1-[(pyrrolidin-1-ylsulfonyl)carbamoyl]-2-vinylcyclopropyl}-7-azadispiro[3.0.4.1]decane-8-carboxamide], less than 0.3 nM; for `C=C[C@@H]1C[C@]1(NC(=O)[C@@H]1C[C@@]2(CN1C(=O)[C@@H](NC(=O)[C@@H](NC(=O)[C@@H]1CCCCN1C)C1CCCCC1)C(C)(C)C)C(C)(C)C21CCC1)C(=O)NS(=O)(=O)N(C)CC` [Compound 93, (5R,8S)-7-[(2S)-2-{[(2S)-2-cyclohexyl-2-({[(2S)-1-methylpiperidin-2-yl]carbonyl}amino)acetyl]amino}-3,3-dimethylbutanoyl]-N-[(1R,2S)-1-({[ethyl(methyl)amino]sulfonyl}carbamoyl)-2-vinylcyclopropyl]-10,10-dimethyl-7-azadispiro[3.0.4.1]decane-8-carboxamide], 2 nM. For `C=C[C@@H]1C[C@]1(NC(=O)[C@@H]1C[C@@]2(CN1C(=O)[C@@H](NC(=O)[C@@H](NC(=O)[C@@H]1CCCCN1C(C)C)C1CCCC1)C(C)(C)C)C(C)(C)C21CCC1)C(=O)NS(=O)(=O)N1CCCC1` [Compound 58, (5R,8S)-7-[(2S)-2-{[(2S)-2-cyclopentyl-2-({[(2S)-1-isopropylpiperidin-2-yl]carbonyl}amino)acetyl]amino}-3,3-dimethylbutanoyl]-10,10-dimethyl-N-{(1R,2S)-1-[(pyrrolidin-1-ylsulfonyl)carbamoyl]-2-vinylcyclopropyl}-7-azadispiro[3.0.4.1]decane-8-carboxamide] the value was 3.5 nM.

Take `C=C[C@@H]1C[C@]1(NC(=O)[C@@H]1C[C@@]2(CN1C(=O)[C@@H](NC(=O)[C@@H](NC(=O)c1cnccn1)C1CCCCC1)C(C)(C)C)C(C)(C)C21CCC1)C(=O)NS(=O)(=O)NC1CC1` [Compound 165, (5R,8S)-7-[(2S)-2-({(2S)-2-cyclohexyl-2-[(pyrazin-2-ylcarbonyl)amino]acetyl}amino)-3,3-dimethylbutanoyl]-N-[(1R,2S)-1-{[(cyclopropylamino)sulfonyl]carbamoyl}-2-vinylcyclopropyl]-10,10-dimethyl-7-azadispiro[3.0.4.1]decane-8-carboxamide]: the IC50 stood at 6.2 nM.

By IC50 is commonly meant the concentration that gives 50% inhibition.

These data come from patent US8613914B2, “Peptidomimetic sulfamide compounds and antiviral uses thereof” (Novartis AG, priority 2009, dated 2013).
